# From patent publication US20060116335A1, “Ready-for-complexation composition” (Lytone Enterprise, Inc., priority 2004, published 2006)
# Tests used:
# [1] = tested on: Aspergillus niger (CRCC 30506); test: Antimycotic activity (MIC) on MRS agar plates inoculated with Aspergillus niger spores; format: cell-based; conditions: 168 h, 7 days at 24° C.
# Procedure: The freshly prepared spore suspension (c.a. 10^6/ml)of Aspergillus niger (CRCC 30506) was inoculated on MRS agar plates containing different concentrations of natamycin. The diameter of the colonies of Aspergillus niger was measured after being incubated for 7days at 24° C. […] The results of Table 2 also indicate that the RFC mixture show higher antimycotic activity than conventional natamycin because of the improved solubility.
# [2] = Natamycin solubility of the RFC composition in water by UV spectrophotometer at 332.6 nm; format: physicochemical; conditions: 25° C.
# Procedure: The RFC compositions were prepared by mixing commercial natamycin (87%) withβ-CD(98%) in different molar ratios. A comparison on the solubility of natamycin was made for the RFC compositions. The solubility of natamycin in water is determined by UV Spectrophotometer at 332.6 nm.
# [3] = cited from earlier work
MIC [1] [µg/mL],Solubility of natamycin [2] [ppm],Structure (SMILES),solubility in water [3]
1.25 to 1.5,,"C[C@@H]1C/C=C/C=C/C=C/C=C/[C@H](O[C@@H]2O[C@H](C)[C@@H](O)[C@H](N)[C@@H]2O)C[C@@H]2O[C@](O)(C[C@@H](O)C[C@H]3O[C@@H]3/C=C/C(=O)O1)C[C@H](O)[C@H]2C(=O)O [Commercial natamycin (50%), natamycin]",
,45,C[C@@H]1C/C=C/C=C/C=C/C=C/[C@H](O[C@@H]2O[C@H](C)[C@@H](O)[C@H](N)[C@@H]2O)C[C@@H]2O[C@](O)(C[C@@H](O)C[C@H]3O[C@@H]3/C=C/C(=O)O1)C[C@H](O)[C@H]2C(=O)O [natamycin],0.005-0.010 weight/weigh
